{"source": "patent US9006191B2", "about": "“Silencing of polo-like kinase expression using interfering RNA” (Protiva Biotherapeutics, Inc., priority 2007, dated 2015)", "key": {"[1]": {"test_system": "IFIT1 mRNA, serum IFNα", "conditions": "mouse, in vivo, iv", "quoted_text": "(§1) Balb/c mice (n=4 per group) were administered 2.5 mg/kg siRNA or lipid vehicle; serum IFNα (pg/mL) and IFIT1 mRNA (relative to GAPDH) from whole liver lysates were assessed after 4, 8, and 16 h by ELISA and bDNA assay, respectively. […] (b) Serum IFNα and (c) liver IFIT1 mRNA were assessed 4 h after administration (mean+SD, n=4).\n(§2) SNALP-formulated Luc (unmodified) and the 2′OMe-modified Luc-U/U, PLK1424-2/A, PLK773-1/B, or KSP2263-U/U siRNA were administered at 2 mg/kg i.v. to Balb/C mice. (A) IFIT1 relative to GAPDH mRNA in liver and spleen was assessed at 4 h by bDNA analysis. […] Serum IFNα was assessed at 6 h by ELISA. […] Values represent mean+SD (n=4).\n(§3) IFIT1 mRNA and serum cytokines were assessed 4-6 h after SNALP administration based on the approximate time of peak response for these markers. In these studies, SNALP-formulated native Luc siRNA (Table 6) was used as a positive control for immune stimulation.\n(§4) In vivo immune stimulation assays. […] 6-8 week old Balb/C mice were obtained from Harlan and subject to a two week acclimation period prior to use. Mice were administered SNALP formulated siRNA (2 mg/kg) in PBS via standard intravenous injection in the lateral tail vein. Blood was collected by cardiac puncture and processed as plasma for cytokine analysis. Liver and spleen were collected into RNALater (Sigma Co.) for IFIT1 mRNA analysis.\n(§5) Measurement of IFIT1 mRNA in mouse tissues. Murine liver and spleen were processed for bDNA assay to quantitate IFIT1 mRNA as described above. The IFIT1 probe set was specific to mouse IFIT1 mRNA (positions 4-499 of NM—008331) and the GAPDH probe set was specific to mouse GAPDH mRNA (positions 9-319 of NM—008084). Data is shown as the ratio of IFIT1 relative light units (RLU) to GAPDH RLU.\n(§6) Cytokine ELISA. All cytokines were quantified using sandwich ELISA kits. These were mouse interferon-α (PBL Biomedical; Piscataway, N.J.) and human and mouse IL-6 (BD Biosciences; San Diego, Calif.)."}, "[2]": {"test_system": "IFIT1 mRNA, serum IFNα", "test": "In vivo immune stimulation assay in Balb/c mice (IFIT1 mRNA, serum IFNα)", "quoted_text": "as §1, §2, §3, §4, §5, §6"}, "[3]": {"test": "SNALP particle size and polydispersity", "assay_type": "physicochemical"}, "[4]": {"test_system": "Hep3B liver tumors", "test": "Intrahepatic Hep3B tumor model (survival, body weight, tumor burden)", "assay_type": "in vivo", "conditions": "Hep3B-nu/nu mouse model, 2 mg/kg twice weekly d11-d28", "experimental": "SNALP containing PLK-1 siRNA (“1:57” SNALP formulation: 1.4% PEG-cDMA; 57.1% DLinDMA; 7.1% DPPC; and 34.3% cholesterol) were tested for their effects on the survival of […] mice bearing Hep3B liver tumors.\nIntrahepatic tumor models. Liver tumors were established in mice by direct intrahepatic injection of Hep3B or Neuro2a tumor cells (45). Female scid/beige mice (Charles River Laboratories) and male A/J mice (Jackson Laboratories) were used as hosts for the Hep3B and Neuro2a tumors, respectively. Animals received Anafen by SC injection immediately prior to surgery. Individual mice were anaesthetized by isoflourane gas inhalation and eye lube applied to prevent excessive eye drying. While maintained under gas anaesthesia, a single 1.5 cm incision across the midline was made below the sternum and the left lateral hepatic lobe exteriorized. 1×10^6 Hep3B cells or 1×10^5 Neuro2a cells suspended in 25 μL PBS were injected slowly into the lobe at a shallow angle using a Hamilton syringe and 30G needle. A swab was then applied to the puncture wound to stop any bleeding prior to suturing. Mice were allowed to recover from anaesthesia in a sterile cage and monitored closely for 2-4 h before being returned to conventional housing.\nEight to 11 days after tumor implantation, mice were randomized into treatment groups. siRNA SNALP formulations or PBS vehicle control were administered by standard intravenous injection via the lateral tail vein, calculated on a mg siRNA/kg basis according to individual animal weights (10 mL/kg injection volume). Body weights were then monitored throughout the duration of the study as an indicator of developing tumor burden and treatment tolerability. For efficacy studies, defined humane endpoints were determined as a surrogate for survival. Assessments were made by qualified veterinary technicians based on a combination of clinical signs, weight loss, and abdominal distension to define the day of euthanization due to tumor burden.\nMeasurement of human PLK-1 and GAPDH mRNA in tumor tissues. Tumors were harvested directly into RNALater and stored at 4° C. until processing. 100 mg tumor tissue was homogenized in Tissue and Lysis Solution (EpiCentre Biotechnologies) containing […] proteinase K (EpiCentre) in a Fastprep tissue homogenizer followed by incubation in a 65° C. waterbath for 15 min and centrifuged to clarify lysates. mRNA analysis in FIG. 33B was performed on purified RNA isolated according the 5′-RACE-PCR protocol. Human PLK-1 and GAPDH mRNA were measured in tumor lystes by the QuantiGene bDNA assay (Panomics) as per the manufacturer's instructions (Quantigene 1.0 Manual). […] Data were expressed as mean PLK-1:GAPDH ratio+/−SD of individual animals. Tumor burden was assessed by homogenizing the complete liver from tumor bearing mice and measuring the total hGAPDH signal (RLU's) within the liver. Values were expressed as hGAPDH RLU/mg total liver."}, "[5]": {"test_system": "hepatocellular carcinoma", "conditions": "patients with advanced disease, phase III; cited from earlier work"}, "[6]": {"test_system": "Flt3-ligand derived murine dendritic cells", "test": "Cytokine induction in murine Flt3L dendritic cell cultures (ELISA)", "assay_type": "cell-based, mouse", "conditions": "murine Flt3L DC, 5 μg/ml siRNA in SNALP, 24 h", "experimental": "Cytokine Induction Assays: Flt3-ligand derived murine dendritic cells (Flt3L DC) were generated as described by Gilliet et al. (J. Exp. Med., 195:953-958) using 100 ng/ml murine Flt3-ligand (PeproTech Inc.; Rocky Hill, N.J.) supplemented media. Femurs and tibiae of female Balb/C mice were isolated and rinsed in sterile PBS. The ends of bones were cut and marrow harvested in complete media (RPMI 1640, 10% heat inactivated FBS, 1% penicillin/streptomycin, 2 mM L-glutamine, 1 mM sodium pyruvate, 25 mM HEPES, 50 μM 2-mercaptoethanol). Bone marrow cells were passed through a 70 μm strainer, centrifuged at 1000 rpm for 7 minutes, and resuspended in complete media supplemented with 100 ng/ml murine Flt3L to 2×10^6 cells/ml. 2 mls of cells were seeded in 6-well plates and 1 ml fresh complete media added every two or three days. On day 9 of culture, non-adherent cells were washed in complete media and plated into 96-well plates at concentrations ranging from 0.5 to 2.5×10^5 cells/well. 2′OMe-modified and unmodified (0/0) PLK-1 SNALP were diluted in PBS and added to Flt3L DC cultures at 5 μg/ml siRNA. Cells were incubated for 24 hours at 37° C. before supernatants were assayed for cytokines by ELISA.\nCytokine ELISA: Interferon-α and IL-6 in culture supernatants were quantified using sandwich ELISA kits according to manufacturer's instructions. These were mouse IFN-α (PBL Biomedical; Piscataway, N.J.) and mouse IL-6 (eBioscience; San Diego, Calif.).\nIn vitro immune stimulation assays. Mouse Flt3L dendritic cell cultures were generated as described previously (65). In brief, bone marrow from Balb/C mice was harvested in complete media (RPMI 1640, 10% FBS, 1% penicillin/streptomycin, 2 mM L-glutamine, 1 mM sodium pyruvate, 25 mM HEPES, 50 uM 2-mercaptoethanol), passed through a 70 micron strainer and resuspended to 2×10^6 cells/mL in complete media supplemented with 100 ng/mL murine Flt3L (Peprotech). Cells were seeded in 6-well plates and 1 mL fresh Flt3L media added every three days. On day 9 of culture, non-adherent cells were plated into 96 well plates at a concentration 2×10^5 cells/well. Formulated siRNA were diluted in PBS and added to the cells for 24 h before supernatants were assayed for cytokines by ELISA.\nCytokine ELISA. All cytokines were quantified using sandwich ELISA kits."}, "[7]": {"test": "Multi-dose toxicity study in CD1 ICR mice", "assay_type": "in vivo, mouse", "conditions": "2 mg/kg twice weekly, after 15 and 29 days", "experimental": "Groups of CD1 ICR mice were administered PBS, PLK773-1/B, or Luc-U/U SNALP to assess potential cumulative toxicities associated with either PLK-1 silencing or the lipid vehicle. Mice were treated twice weekly at 2 mg/kg siRNA, equivalent to the efficacious dosing regimen in tumor studies. […] All values are mean+/−SD (n=6). No changes in red blood cell parameters were observed."}, "[8]": {"test_system": "KSP mRNA", "test": "KSP mRNA silencing in Neuro2a cells (bDNA assay)", "assay_type": "cell-based, mouse", "conditions": "24 h after transfection", "from_the_text": "Activity of the 2′OMe-modified panels of (A) PLK1424 and (B) PLK773 siRNA. Unmodified PLK1424 or PLK773 siRNA (black) were compared in the Hep3B cell viability assay to the 2′OMe modified duplexes 1/A, 2/A, 1/B, 2/B, 1/C, or 2/C that comprise the respective 2′OMe sense/antisense oligonucleotides (see, Table 6). Data are mean viability of triplicate cultures relative to PBS treated cells and representative of 2 independent experiments using SNALP-formulated siRNA. (C) Cytokine induction by unmodified and 2′OMe PLK-1 siRNA in vitro. Murine Flt3L DC were treated with 5 μg/mL unmodified PLK773 or PLK1424 siRNA duplexes (773, 1424) and their constituent sense (S) or antisense (AS) oligonucleotides or the 2′OMe siRNA duplexes PLK773-1/B and PLK1424-2/A formulated in SNALP. IFNα and IL-6 were assayed in culture supernates at 24 h. Values are mean+SD of 3 separate experiments conducted in triplicate cultures. (D,E) Activity of SNALP-formulated KSP2263 siRNA in murine Neuro2a cells. (D) Correlation between KSP mRNA silencing and cell viability relative to PBS control. KSP mRNA was determined by bDNA analysis at 24 h. Duplicate plates were assessed for cell viability at 72 h. (E) Activity screen comparing the unmodified KSP2263 siRNA to the panel of 2′OMe-modified duplexes (see, Table 6) in the Neuro2a cell viability assay. Data represents mean+/−SD triplicate cultures, relative to PBS treatment. […]"}, "[9]": {"test_system": "Neuro2A cells", "test": "Neuro2A cell viability assay (CellTiter-Blue)", "assay_type": "cell-based", "conditions": "mouse Neuro2A cells, SNALP-formulated siRNA, viability at 72 h relative to PBS", "experimental": "Various PLK-1 siRNAs were formulated as SNALP (“2:40” SNALP formulation: 2% PEG-cDMA; 40% DLinDMA; 10% DSPC; and 48% cholesterol) and evaluated for their inhibitory effects on cell growth in vitro. HT29 (human colon adenocarcinoma) or Neuro2A (mouse neuroblastoma) cells were treated with various PLK-1 SNALP at a range of siRNA concentrations and their effect on cell viability was evaluated. Viability of cell cultures is expressed as % viability relative to PBS treated controls.\nAdditional PLK-1 siRNA molecules were formulated as SNALP (“2:40” SNALP formulation: 2% PEG-cDMA; 40% DLinDMA; 10% DSPC; and 48% cholesterol) and evaluated for their inhibitory effects on cell growth in vitro. HT29 or Neuro2A cells were plated in triplicate at 5000 cells/well and 2500 cells/well, respectively. PLK-1 SNALP dosages were as follows: 25 nM; 5 nM; and 1 nM. Cell viability analysis was performed at 72 hours following transfection. SNALP containing a non-targeting (GFP) siRNA were used as a negative control.\nAdditional PLK-1 siRNA molecules were formulated as SNALP (“2:40” SNALP formulation: 2% PEG-cDMA; 40% DLinDMA; 10% DSPC; and 48% cholesterol) and evaluated for their inhibitory effects on cell growth in vitro. HT29 or Neuro2A cells were plated in triplicate at 5000 cells/well and 2500 cells/well, respectively. PLK-1 SNALP dosages were as follows: 30 nM; 10 nM; and 3.3 nM. Cell viability analysis was performed at 72 hours following transfection. SNALP containing a non-targeting (GFP) siRNA were used as a negative control."}, "[10]": {"test_system": "HeLa cells", "test": "Monoastral spindle formation in HeLa cells", "assay_type": "cell-based, human", "conditions": "20 nM, 16 h", "experimental": "HeLa cells were treated for 16 h with (A) Luc or (B) KSP2263 siRNA at 20 nM then immunostained for α-tubulin (FITC). DNA was stained with DAPI and flourescent images captured and overlayed."}}, "note": "Where “and” joins values, the source holds several entries; their conditions need not be identical. Equal values may be shown once. Read-outs that look alike come from different tables or passages of the source. Strand notation (5' to 3'): a small letter for the sugar, then the base; units joined by * are phosphorothioate-linked, units joined directly phosphodiester-linked; [ ] holds rarer units or linkages, { } end groups; capitals alone tell only the bases. d = 2'-deoxy (DNA); m = 2'-O-methyl; r = 2'-OH (RNA)"}
{"compound": "Luc: unmodified siRNA targeting luciferase, SEQ ID NO:231/232 (chain 1 GAUUAUGUCCGGUUAUGUAUU; chain 2 UACAUAACCGGACAUAAUCUU; unmodified RNA)", "values": [{"measurement": "serum IFNα / serum cytokine response", "setting": "[1]", "value": "detection of systemic IFNα"}, {"measurement": "increase in IFIT1 mRNA in the liver compared to PBS", "setting": "[2]; 2 mg/kg IV, 4 h", "value": 83, "unit": "fold"}, {"measurement": "increase in IFIT1 mRNA in the spleen compared to PBS", "setting": "[2]; 2 mg/kg IV, 4 h", "value": 247, "unit": "fold"}, {"measurement": "mean SNALP particle size", "setting": "[3]", "value": "90 nm and 82 nm and 72 nm"}, {"measurement": "median survival, Study (A)", "setting": "[4]", "value": 67, "unit": "days"}, {"measurement": "median survival, study (B)", "setting": "[4]", "value": "undefined"}]}
{"compound": "CNC(=O)c1cc(Oc2ccc(NC(=O)Nc3ccc(Cl)c(C(F)(F)F)c3)cc2)ccn1", "note": "[Sorafenib]", "values": [{"measurement": "survival time", "setting": "[5]", "value": 10.7, "unit": "mo"}]}
{"compound": "PLK773-1/B: 2′OMe-modified PLK773 duplex, SEQ ID NO:220/223 (chain 1 AGACCUACCUCCGGAUCAAUU; chain 2 UUGAUCCGNAGNUAGGNCUUU; siRNA; chain 1: sugars from the 5' end r1 m1 r10 m1 r8, backbone not given here; chain 2: chemistry not given here)", "values": [{"measurement": "cytokine (IL-6, IFN-α) response", "setting": "[6]", "value": "completely abrogated"}, {"measurement": "serum IFNα / serum cytokine response", "setting": "[2]; SNALP-formulated siRNA IV, 4-6 h", "value": "no measurable IFNα"}, {"measurement": "IFIT1 mRNA induction in liver and spleen", "setting": "[2]; SNALP-formulated siRNA IV, 4 h", "value": "no measurable IFNα or increase in IFIT1 mRNA in the liver or spleen"}, {"measurement": "clinical chemistry and blood counts", "setting": "[7]", "value": "no significant changes in serum liver enzymes, total wbc, lymphocyte and neutrophil counts, platelet numbers, or rbc parameters"}]}
{"compound": "KSP2263: published siRNA targeting KSP, SEQ ID NO:225/226 (chain 1 rCrUrGrArArGrArCrCrUrGrArArGrArCrArArUdTdT; chain 2 rArUrUrGrUrCrUrUrCrArGrGrUrCrUrUrCrArGdTdT)", "values": [{"measurement": "KSP mRNA", "setting": "[8]", "value": "dose-dependent reductions in KSP mRNA"}, {"measurement": "mean SNALP particle size", "setting": "[3]", "value": 88, "unit": "nm"}, {"measurement": "polydispersity", "setting": "[3]", "value": 0.07}, {"measurement": "cell viability / inhibition of cell growth", "setting": "[9]", "value": "loss of cell viability at 72 h"}, {"measurement": "monoastral spindle phenotype", "setting": "[10]", "value": "monoastral spindles"}]}
